Measurements published in PMC7937321 (Genes and Environment, 2021).
Read-outs that look alike come from different tables or passages of the source.

Columns and labels:
[1] = tested on: TA1538, TA100, TA98, TA97, TA1535; details: cited from earlier work
[2] = Cytotoxicity in the TK6 assay (CE, RS, RSG, RTG); details: human; for viability at 24 h, 173.7 μg/mL: 173.70 μg/mL; for viability at 24 h, 277.9 μg/mL: 277.90 μg/mL; for viability at 4 h, 444.7 μg/mL: dose 444.70 μg/mL
[3] = tested on: TK6 cells; test: Cytotoxicity in the TK6 assay (CE, RS, RSG, RTG)
[4] = TK6 cells with rat liver S9 mix, CE0 (%), cell viability on Day 0, Short treatment, +S9 mix
[5] = TK6 cells with rat liver S9 mix, CE3 (%), cell viability on Day 3, Short treatment, +S9 mix
[6] = TK6 cells without S9 mix, CE0 (%), cell viability on Day 0, 24 h treatment, -S9 mix
[7] = TK6 cells without S9 mix, CE0 (%), cell viability on Day 0, Short treatment, -S9 mix
[8] = TK6 cells without S9 mix, CE3 (%), cell viability on Day 3, 24 h treatment, -S9 mix
[9] = TK6 cells without S9 mix, CE3 (%), cell viability on Day 3, Short treatment, -S9 mix
[10] = 24 h treatment, -S9 mix, 173.70 μg/mL
[11] = 24 h treatment, -S9 mix, 277.90 μg/mL
[12] = 24 h treatment, -S9 mix, 444.70 μg/mL
[13] = 24 h treatment, -S9 mix, 711.5 μg/mL
[14] = 24 h treatment, -S9 mix, 1138.4 μg/mL
[15] = 24 h treatment, -S9 mix, 1821.4 μg/mL
[16] = Short treatment, +S9 mix, dose 173.7 μg/mL
[17] = Short treatment, +S9 mix, dose 277.9 μg/mL

## Nc1cc([N+](=O)[O-])ccc1C(=O)O [4-Nitroanthranilic acid]
[1]; TA100 with S9, ref Table 2
  The Highest Specific Activity and the Strain: 2830 revertants/mg
[1]; TA1535 with S9, ref [33]
  The Highest Specific Activity and the Strain: 3600 revertants/mg
[1]; with S9, ref [18]-[40], Table 2
  Bacterial reverse mutation assay, With S9: Pos
[1]; without S9, ref [18]-[40], Table 2
  Bacterial reverse mutation assay, Without S9: Pos
[2]; TK6 cells with rat liver S9 mix, CE0 (%), cell viability on Day 0, Short treatment, +S9 mix, dose 173.7 μg/mL
  viability at 4 h, 173.7 μg/mL: 84.1%
[2]; TK6 cells with rat liver S9 mix, CE0 (%), cell viability on Day 0, Short treatment, +S9 mix, dose 277.9 μg/mL
  viability at 4 h, 277.9 μg/mL: 98%
[2]; [4]
  viability at 4 h, 445 μg/mL: 72.7%
  viability at 4 h, 712 μg/mL: 79.3%
  viability at 4 h, 1138 μg/mL: 108%
  viability at 4 h, 1821 μg/mL: 3.3%
[2]; TK6 cells with rat liver S9 mix, CE3 (%), cell viability on Day 3, Short treatment, +S9 mix, dose 173.7 μg/mL
  viability at 4 h, 173.7 μg/mL: 70.6%
[2]; TK6 cells with rat liver S9 mix, CE3 (%), cell viability on Day 3, Short treatment, +S9 mix, dose 277.9 μg/mL
  viability at 4 h, 277.9 μg/mL: 66.7%
[2]; [5]
  viability at 4 h, 445 μg/mL: 81.6%
  viability at 4 h, 712 μg/mL: 98%
  viability at 4 h, 1138 μg/mL: 84.1%
  viability at 4 h, 1821 μg/mL: 44.6%
[2]; [6]
  viability at 24 h, 173.7 μg/mL: 47.4%
  viability at 24 h, 277.9 μg/mL: 23.4%
  viability at 24 h, 711.5 μg/mL: 42%
  viability at 24 h, 1821.4 μg/mL: 24.4%
[2]; TK6 cells without S9 mix, CE0 (%), cell viability on Day 0, 24 h treatment, -S9 mix, 444.70 μg/mL
  viability at 24 h, 444.7 μg/mL: 42%
[2]; TK6 cells without S9 mix, CE0 (%), cell viability on Day 0, 24 h treatment, -S9 mix, 1138.4 μg/mL
  viability at 24 h, 1138.4 μg/mL: 30.4%
[2]; TK6 cells without S9 mix, CE0 (%), cell viability on Day 0, Short treatment, -S9 mix, dose 173.70 μg/mL
  viability at 4 h, 173.7 μg/mL: 120%
[2]; TK6 cells without S9 mix, CE0 (%), cell viability on Day 0, Short treatment, -S9 mix, dose 277.90 μg/mL
  viability at 4 h, 277.9 μg/mL: 77%
[2]; [7]
  viability at 4 h, 444.7 μg/mL: 77%
  viability at 4 h, 711.5 μg/mL: 74.8%
  viability at 4 h, 1138.4 μg/mL: 46%
  viability at 4 h, 1821.4 μg/mL: 29.4%
[2]; [8]
  viability at 24 h, 173.7 μg/mL: 84.1%
  viability at 24 h, 277.9 μg/mL: 84.1%
  viability at 24 h, 711.5 μg/mL: 68.7%
  viability at 24 h, 1821.4 μg/mL: 43.3%
[2]; TK6 cells without S9 mix, CE3 (%), cell viability on Day 3, Short treatment, -S9 mix, dose 173.70 μg/mL
  viability at 4 h, 173.7 μg/mL: 89.3%
[2]; TK6 cells without S9 mix, CE3 (%), cell viability on Day 3, Short treatment, -S9 mix, dose 277.90 μg/mL
  viability at 4 h, 277.9 μg/mL: 77%
[2]; [9]
  viability at 4 h, 444.7 μg/mL: 105%
  viability at 4 h, 711.5 μg/mL: 101%
  viability at 4 h, 1138.4 μg/mL: 95%
  viability at 4 h, 1821.4 μg/mL: 105%
[3]; 1138 μg/mL, short-term without metabolic activation
  cytotoxicity: More than 50%
[3]; 1821 μg/mL, long-term treatment
  cytotoxicity: More than 80%
[3]; 1821 μg/mL, short-term with metabolic activation
  cytotoxicity: approximately 100%
[3]; 1821 μg/mL, short-term without metabolic activation
  cytotoxicity: More than 50%
[3]; [10]
  Adjusted CE0(%): 111.3%
  RS0 (%): 133.0%
  RSG: 1.273
[3]; [11]
  Adjusted CE0(%): 40.4%
  RS0 (%): 48.3%
  RSG: 0.978
[3]; [12]
  Adjusted CE0(%): 71.5%
  RS0 (%): 85.4%
  RSG: 1.146
[3]; [13]
  Adjusted CE0(%): 49.4%
  RS0 (%): 59.0%
  RSG: 1.081
[3]; [14]
  Adjusted CE0(%): 26.6%
  RS0 (%): 31.8%
  RSG: 0.835
[3]; [15]
  Adjusted CE0(%): 14.0%
  RS0 (%): 16.7%
  RSG: 0.892
[3]; [16]
  Adjusted CE0(%): 84.1%
  RS0 (%): 71.1%
  RSG: 1.078
[3]; [17]
  Adjusted CE0(%): 107.8%
  RS0 (%): 91.1%
  RSG: 0.902
